Measured values taken from PubChem BioAssay AID1259407 (Chemical Carcinogenesis Research Information System (CCRIS), 2018).
Calls of active or inactive are those of the source. The rule behind the calls is not given here.

Test system: CCRIS mutagenicity, Ames/micronucleus/aberration tests
Experiment: CCRIS mutagenicity studies

Measured: mutagenic call

CC(C)n1c(/C=C/[C@H](O)C[C@H](O)CC(=O)O)c(-c2ccc(F)cc2)c2ccccc21
inactive: End Point: AMES SALMONELLA TYPHIMURIUM, Test System: TA98, Metabolic Activation: NONE, Method: STANDARD PLATE inactive; negative | End Point: AMES SALMONELLA TYPHIMURIUM, Test System: TA98, Metabolic Activation: RAT, LIVER, S-9, AROCLOR 1254, Method: STANDARD PLATE inactive; negative | End Point: AMES SALMONELLA TYPHIMURIUM, Test System: TA100, Metabolic Activation: NONE, Method: STANDARD PLATE inactive; negative | End Point: AMES SALMONELLA TYPHIMURIUM, Test System: TA100, Metabolic Activation: RAT, LIVER, S-9, AROCLOR 1254, Method: STANDARD PLATE inactive; negative | End Point: AMES SALMONELLA TYPHIMURIUM, Test System: TA1535, Metabolic Activation: NONE, Method: STANDARD PLATE inactive; negative | End Point: AMES SALMONELLA TYPHIMURIUM, Test System: TA1535, Metabolic Activation: RAT, LIVER, S-9, AROCLOR 1254, Method: STANDARD PLATE inactive; negative | End Point: AMES SALMONELLA TYPHIMURIUM, Test System: TA1537, Metabolic Activation: NONE, Method: STANDARD PLATE inactive; negative | End Point: AMES SALMONELLA TYPHIMURIUM, Test System: TA1537, Metabolic Activation: RAT, LIVER, S-9, AROCLOR 1254, Method: STANDARD PLATE inactive; negative | End Point: AMES SALMONELLA TYPHIMURIUM, Test System: TA1538, Metabolic Activation: NONE, Method: STANDARD PLATE inactive; negative | End Point: AMES SALMONELLA TYPHIMURIUM, Test System: TA1538, Metabolic Activation: RAT, LIVER, S-9, AROCLOR 1254, Method: STANDARD PLATE inactive; negative | End Point: E. COLI, Test System: WP2 UVRA/PKM101, Metabolic Activation: NONE, Method: STANDARD PLATE inactive; negative | End Point: E. COLI, Test System: WP2 UVRA/PKM101, Metabolic Activation: RAT, LIVER, S-9, AROCLOR 1254, Method: STANDARD PLATE inactive; negative | End Point: E. COLI, Test System: WP2 UVRA, Metabolic Activation: NONE, Method: STANDARD PLATE inactive; negative | End Point: E. COLI, Test System: WP2 UVRA, Metabolic Activation: RAT, LIVER, S-9, AROCLOR 1254, Method: STANDARD PLATE inactive; negative | End Point: IN VITRO CHROMOSOMAL ABERRATIONS, Test System: CHINESE HAMSTER V79A, Metabolic Activation: NONE inactive; negative | End Point: IN VITRO CHROMOSOMAL ABERRATIONS, Test System: CHINESE HAMSTER V79A, Metabolic Activation: RAT, LIVER, S-9, AROCLOR 1254 inactive; negative | End Point: IN VIVO MICRONUCLEUS, Test System: BONE MARROW POLYCHROMATIC ERYTHROCYTES, Species: MOUSE, Strain/Sex: CD-1/MALE, FEMALE, Route: GAVAGE inactive; negative | Test System: AMES SALMONELLA TYPHIMURIUM, Strain/Indicator: TA98, Metabolic Activation: NONE, Method: STANDARD PLATE inactive; negative | Test System: AMES SALMONELLA TYPHIMURIUM, Strain/Indicator: TA98, Metabolic Activation: RAT, LIVER, S-9, AROCLOR 1254, Method: STANDARD PLATE inactive; negative | Test System: AMES SALMONELLA TYPHIMURIUM, Strain/Indicator: TA100, Metabolic Activation: NONE, Method: STANDARD PLATE inactive; negative | Test System: AMES SALMONELLA TYPHIMURIUM, Strain/Indicator: TA100, Metabolic Activation: RAT, LIVER, S-9, AROCLOR 1254, Method: STANDARD PLATE inactive; negative | Test System: AMES SALMONELLA TYPHIMURIUM, Strain/Indicator: TA1535, Metabolic Activation: NONE, Method: STANDARD PLATE inactive; negative | Test System: AMES SALMONELLA TYPHIMURIUM, Strain/Indicator: TA1535, Metabolic Activation: RAT, LIVER, S-9, AROCLOR 1254, Method: STANDARD PLATE inactive; negative | Test System: AMES SALMONELLA TYPHIMURIUM, Strain/Indicator: TA1537, Metabolic Activation: NONE, Method: STANDARD PLATE inactive; negative | Test System: AMES SALMONELLA TYPHIMURIUM, Strain/Indicator: TA1537, Metabolic Activation: RAT, LIVER, S-9, AROCLOR 1254, Method: STANDARD PLATE inactive; negative | Test System: AMES SALMONELLA TYPHIMURIUM, Strain/Indicator: TA1538, Metabolic Activation: NONE, Method: STANDARD PLATE inactive; negative | Test System: AMES SALMONELLA TYPHIMURIUM, Strain/Indicator: TA1538, Metabolic Activation: RAT, LIVER, S-9, AROCLOR 1254, Method: STANDARD PLATE inactive; negative | Test System: CHINESE HAMSTER FIBROBLASTS, Strain/Indicator: CHINESE HAMSTER V79A/HGPRT, Metabolic Activation: NONE inactive; negative | Test System: CHINESE HAMSTER FIBROBLASTS, Strain/Indicator: CHINESE HAMSTER V79A/HGPRT, Metabolic Activation: RAT, LIVER, S-9, AROCLOR 1254 inactive; negative | Test System: CHINESE HAMSTER V-79, Strain/Indicator: V-79 (HGPRT), Metabolic Activation: NONE inactive; negative | Test System: CHINESE HAMSTER V-79, Strain/Indicator: V-79 (HGPRT), Metabolic Activation: RAT, LIVER, S-9, AROCLOR 1254 inactive; negative | Test System: E. COLI, Strain/Indicator: WP2 UVRA (PKM101), Metabolic Activation: NONE, Method: STANDARD PLATE inactive; negative | Test System: E. COLI, Strain/Indicator: WP2 UVRA (PKM101), Metabolic Activation: RAT, LIVER, S-9, AROCLOR 1254, Method: STANDARD PLATE inactive; negative | Test System: E. COLI, Strain/Indicator: WP2 UVRA, Metabolic Activation: NONE, Method: STANDARD PLATE inactive; negative | Test System: E. COLI, Strain/Indicator: WP2 UVRA, Metabolic Activation: RAT, LIVER, S-9, AROCLOR 1254, Method: STANDARD PLATE inactive; negative

CN(C)CCN(Cc1ccsc1)c1ccccn1
inactive: Test System: AMES SALMONELLA TYPHIMURIUM, Strain/Indicator: TA98, Metabolic Activation: HAMSTER, LIVER, S-9, AROCLOR 1254 (10%), Method: PREINCUBATION inactive; negative | Test System: AMES SALMONELLA TYPHIMURIUM, Strain/Indicator: TA98, Metabolic Activation: NONE, Method: PREINCUBATION inactive; negative | Test System: AMES SALMONELLA TYPHIMURIUM, Strain/Indicator: TA98, Metabolic Activation: RAT, LIVER, S-9, AROCLOR 1254 (10%), Method: PREINCUBATION inactive; negative | Test System: AMES SALMONELLA TYPHIMURIUM, Strain/Indicator: TA100, Metabolic Activation: HAMSTER, LIVER, S-9, AROCLOR 1254 (10%), Method: PREINCUBATION inactive; negative | Test System: AMES SALMONELLA TYPHIMURIUM, Strain/Indicator: TA100, Metabolic Activation: NONE, Method: PREINCUBATION inactive; negative | Test System: AMES SALMONELLA TYPHIMURIUM, Strain/Indicator: TA100, Metabolic Activation: RAT, LIVER, S-9, AROCLOR 1254 (10%), Method: PREINCUBATION inactive; negative | Test System: AMES SALMONELLA TYPHIMURIUM, Strain/Indicator: TA1535, Metabolic Activation: HAMSTER, LIVER, S-9, AROCLOR 1254 (10%), Method: PREINCUBATION inactive; negative | Test System: AMES SALMONELLA TYPHIMURIUM, Strain/Indicator: TA1535, Metabolic Activation: NONE, Method: PREINCUBATION inactive; negative | Test System: AMES SALMONELLA TYPHIMURIUM, Strain/Indicator: TA1535, Metabolic Activation: RAT, LIVER, S-9, AROCLOR 1254 (10%), Method: PREINCUBATION inactive; negative | Test System: AMES SALMONELLA TYPHIMURIUM, Strain/Indicator: TA1537, Metabolic Activation: HAMSTER, LIVER, S-9, AROCLOR 1254 (10%), Method: PREINCUBATION inactive; negative | Test System: AMES SALMONELLA TYPHIMURIUM, Strain/Indicator: TA1537, Metabolic Activation: NONE, Method: PREINCUBATION inactive; negative | Test System: AMES SALMONELLA TYPHIMURIUM, Strain/Indicator: TA1537, Metabolic Activation: RAT, LIVER, S-9, AROCLOR 1254 (10%), Method: PREINCUBATION inactive; negative
